# Results as given in US9598451B2, “Bis-organometallic 2-amino-3-hydroxy-2-methylpropanenitrile derivatives for use as anthelmintics” (UNIVERSITÄT ZÜRICH, priority 2013, dated 2017).
# Experiments:
# Assay type in all cases: cell-based
# [1] = system: human cervical cancer HeLa; experiment: fluorometric cell viability assay (Resazurin), HeLa; details: HeLa cells, treated for 2 days
# Protocol: (§1) Cell Culture: Human cervical carcinoma cells (HeLa) were cultured in DMEM (Gibco) supplemented with 5% fetal calf serum (FCS, Gibco), 100 U/ml penicillin, 100 μg/ml streptomycin at 37° C. and 5% CO2. The normal human fetal lung fibroblast MRC-5 cell line was maintained in F-10 medium (Gibco) supplemented with 10% FCS (Gibco), 200 mmol/l L-Glutamine, 100 U/ml penicillin, and 100 μg/ml streptomycin at 37° C. and 5% CO2. To establish the anticancer potential of the compounds they were tested in one cell line, namely HeLa by a fluorometric cell viability assay using Resazurin (Promocell GmbH). Compounds showing cytotoxicity were then tested on normal MRC-5 cells. 1 day before treatment, cells were plated in triplicates in 96-well plates at a density of 4×10^3 cells/well in 100μl for HeLa and 7×10^3 cells/well for MRC-5 cells. Cells were treated with increasing concentrations of the compounds for 2 days. After 2 days, medium and drug were removed and […] fresh medium containing Resazurin (0.2 mg/ml final concentration) were added. After 4h of incubation at 37° C., the highly red fluorescent dye resorufin's fluorescence was quantified at 590 nm emission with 540 nm excitation wavelength in the SpectraMax M5 microplate Reader. […]
# [2] = system: human lung fibroblasts MRC-5; experiment: fluorometric cell viability assay (Resazurin), MRC-5; details: MRC-5 cells, treated for 2 days
# Protocol: as §1
# H. contortus = experiment: larval development assay (number of L3)
# Protocol: In vitro experiments can be conducted by testing compounds in a larval development assay. To do this, sheep are infected with infective third-stage larvae (L3) of species of Haemonchus, Trichstrongylus, Teledorsagia, Cooperia, Oesophagostomum or Chabertia. Faeces from these sheep are collected and used for experiments; ˜100 g of faeces are crushed homogenized and suspended in ˜1000 ml of sugar solution (specific gravity 1.2), put through a ‘tea strainer’ sieve, and the large undigested food material in the sieve discarded. The sugar solution is then placed into a flat dish and strips of plastic overhead transparency film placed on the surface. The plastic is left for at least 45 minutes to allow the eggs to stick and then removed carefully. The eggs are collected by washing them from the plastic film, with water, into a 50 ml centrifuge tube. The water containing egg suspension eggs is put through a […] to remove further plant material and then centrifuged at 1,000×g for 10 minutes. The supernatant is checked for eggs and then discarded as the majority of eggs are at the bottom of the tube. These eggs are collected in 1 ml of water and diluted to ˜200 eggs/20 ml. • 1. […] Following 7 days additional incubation, the numbers of L3 larvae that had developed in each well is determined.
# C. elegans = C. elegans movement inhibition assay; details: for mobility of the C. elegans worms: 50 μM, result in words
# Protocol: C. elegans movement inhibition assay: Asynchronous N2 C. elegans worms (Bristol) were maintained on nematode growth medium (NGM) agar, seeded with a lawn on OP50 E. coli as a food-source, according to standard protocol (Maintenance of C. elegans; Stiernagle, T., Ed.; WormBook, 2006.). Worms were harvested from NGM plates by washing with M9 buffer (42 mmol/l Na2HPO4, 86 mmol/l NaCl and 1 mmol/l MgSO4), aspiration and collection in a 10 mL tube (Falcon). The average number of worms in 5 μL of this suspension was calculated by transferring 4×5 μL aliquots to a glass slide (Menzel Glaser), and worms were enumerated under a compound microscope (Olympus CH30). To adjust the suspension to contain 1 worm per μL, M9 buffer was either added or removed after pelleting worms at 600×g for 30 sec.
# Dilution of test compounds, Zolvix (monepantel) and DMSO for working stock solutions and 96 well plate set-up for liquid screen: A volume of […] buffer was added to each well in a 96-well plate, using a multichannel pipettor. A volume of 20μL of worm suspension was added to each well using a single-channel pipettor, with a trimmed pipette tip (increased aperture to minimize damage to worms). The worm suspension was resuspended by flicking after every three wells to maintain consistency. The compounds were stored at 4° C., and diluted in dimethyl sulfoxide (DMSO) to achieve a 100 mmol/l concentration 1 hr prior to addition to assay. These stock solutions were diluted further in DMSO to create a series of 20 mmol/l, […] and 0.002 mmol/l which were subsequently diluted 1:20 in M9 buffer to create 1 mmol/l, 0.1 mmol/l, 1 μmol/l and 0.1 μmol/l (all 5% (v/v) DMSO). […] A Zolvix (monepantel) dilution series was simultaneously created following the same dilution schema, and used as a positive control; 10 μL of 10% DMSO was added to achieve 1% DMSO vehicle control. 10 μL M9 was added to negative control wells (see FIG. 1). Plates were incubated at […]
# Quantitative worm mobility scoring: Immobile worms were counted as a percentage of total worms in each well using an Olympus SZ30 dissecting microscope. The immobile fraction was subtracted from the total, and this remainder was divided by the total to give a percentage of live worms per well. Descriptive and inferential statistics were deferred until further replicates are performed.
substance,measurement,setting,value
2-Cyano-2-(ruthenocenecarboxamido)propyl ruthenocnecarboxylate [Compound 2a],IC50,[1],> 100 µM
same,IC50,[2],> 100 µM
2-Ferroceneamido-2-cyanopropyl ferrocenate [Compound 2],Number of L3 H. contortus/100 μM,H. contortus,>100
same,IC50,[1],> 100 µM
same,IC50,[2],24.6 µM
same,Mobility in C. elegans at 50 μM,C. elegans,22%
same,mobility of the C. elegans worms,C. elegans,reduced
N-(1-(ferrocenyloxy)-2-cyanopropan-2-yl)ferroceneamide [Compound 1],Number of L3 H. contortus/100 μM,H. contortus,94.7
same,Mobility in C. elegans at 50 μM,C. elegans,25%
same,mobility of the C. elegans worms,C. elegans,reduced
